# Substitutions are numbered along the chain they refer to.
# Experiments:
# ACVR1 R206H = target: T1, ACVR1 R206H (Homo sapiens, UniProt Q04771, R206H); experiment: ACVR1 kinase assay, casein substrate, 33P-ATP, filter binding; format: biochemical; details: 10 μM ATP
# T1 sequence (Q04771 21-509 R206H): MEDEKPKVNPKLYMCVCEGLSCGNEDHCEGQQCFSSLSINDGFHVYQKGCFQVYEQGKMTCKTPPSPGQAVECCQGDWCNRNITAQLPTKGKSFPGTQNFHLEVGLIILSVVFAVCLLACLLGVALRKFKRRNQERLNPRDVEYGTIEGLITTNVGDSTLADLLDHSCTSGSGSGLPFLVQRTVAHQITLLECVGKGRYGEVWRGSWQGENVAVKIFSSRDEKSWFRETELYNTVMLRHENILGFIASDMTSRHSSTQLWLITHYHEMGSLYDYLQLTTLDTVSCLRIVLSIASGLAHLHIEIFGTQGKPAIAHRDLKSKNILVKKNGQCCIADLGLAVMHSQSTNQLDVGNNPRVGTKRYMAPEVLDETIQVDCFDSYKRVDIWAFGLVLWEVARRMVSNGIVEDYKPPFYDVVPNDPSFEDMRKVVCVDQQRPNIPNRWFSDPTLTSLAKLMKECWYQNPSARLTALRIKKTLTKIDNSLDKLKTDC
# Description: (§1) In brief, casein-based substrates were prepared. The respective ACVR1 kinase was added to the substrate mixture and hot/cold 33P-ATP (10 μM) was added to initiate the reaction. The activity was then measured with a filter binding method.
# (§2) The IC50 values against the kinases are listed below in Table 3.
# ACVR1 G328V = target: T2, ACVR1 G328V (Homo sapiens, UniProt Q04771, G328V); experiment: as above; format: biochemical; details: 10 μM ATP
# T2 sequence (Q04771 21-509 G328V): T1 sequence (Q04771 21-509 R206H) with H186R, G308V
# Description: as §1, §2
# ACVR1 R258G = target: T3, ACVR1 R258G (Homo sapiens, UniProt Q04771, R258G); experiment: as above; format: biochemical; details: 10 μM ATP
# T3 sequence (Q04771 21-509 R258G): T1 sequence (Q04771 21-509 R206H) with H186R, R238G
# Description: as §1, §2
# ACVR1 Wild Type = target: T4, ACVR1 Wild Type (Homo sapiens, UniProt Q04771); experiment: as above; format: biochemical; details: 10 μM ATP
# T4 sequence (Q04771 21-509): T1 sequence (Q04771 21-509 R206H) with H186R
# Description: as §1, §2
# [1] = IV and PO plasma pharmacokinetics in rats; format: in vivo; details: Sprague-Dawley, rat, fasted female SD rats
# Description: Pharmacokinetic and toxicology of Compound 2 were tested in rats. The intravenous (IV) and oral (PO) pharmacokinetics of Compound 2 were determined in plasma in fasted female Sprague-Dawley (SD) rats. The formulation used was 20% solutol and 80% saline for both administration routes. The nominal dose was 2 mg/kg (IV) and 20 mg/kg (PO). Samples were taken at 8 time points and the drug concentrations were determined by LC-MS/MS.
# [2] = test system: ACVR1 mutant (G328V mutated cell line) and wild type DIPG cell lines; experiment: Proliferation assay against DIPG cell lines; format: cell-based; details: ACVR1 G328V mutant vs wild type DIPG cell lines
# Description: Compound 2 was tested in a proliferation assay against ACVR1 mutant (G328V mutated cell line) and wild type DIPG cell lines in vitro.
compound,measurement,setting,value
"COc1cc(Nc2nccc(Nc3cccnc3-c3ccccn3)n2)ccc1N1CCN(C)CC1 [Compound 2, N^4-(2,2′-bipyridin-3-yl)-N^2-(3-methoxy-4-(4-methylpiperazin-1-yl)phenyl)pyrimidine-2,4-diamine]",IC50,ACVR1 R206H,3.8 nM
same,IC50,ACVR1 G328V,13.8 nM
same,IC50,ACVR1 R258G,51.6 nM
same,IC50,ACVR1 Wild Type,4.5 nM
same,AUC,[1]; 20 mg/kg PO,2520 ng·h/mL
same,Cmax,[1]; 20 mg/kg PO,159 ng/mL
same,Tmax,[1]; 20 mg/kg PO,5.33 h
same,half-life,[1]; 20 mg/kg PO,6.58 h
same,bioavailability,"[1]; 20 mg/kg PO vs 2 mg/kg IV, read-out: Oral Bioavailability (% F)",60.8%
same,Activity in proliferation assay,[2],selective activity against the mutated cell line

# From patent US11040038B2, “Methods for treating diseases associated with abnormal ACVR1 expression and ACVR1 inhibitors for use in the same” (Sumitomo Dainippon Pharma Oncology, Inc., priority 2018, dated 2021)
